Measurements: patent US4874780A, “Anticancer compounds” (Norsk Hydro a.s., priority 1987, dated 1989)
“Also recorded” adds a separate entry of the source. Counter-ions that a name gives are not always drawn. Like-named read-outs stand apart in the source and are kept apart here.

Key:
[1] = Solubility in water, pH of solution and stability of benzylidene ascorbic acid compounds; type: physicochemical; settings: for Stability (in words): free acid compared with mono-basic salt
Source text: The structural formula is shown below. The structure has been confirmed by IR and NMR. […] The pH of the solution is 6.6. [drawing 8] The beneficial properties of the drug composition according to the present invention are illustrated below in connection with a series of experiments which have been performed.

NHIK 3025 cells [2] = assay: Cell survival (colony formation) after 24 hr treatment; type: cell-based; settings: Homo sapiens, NHIK3025, 24 h
Source text: (§1) Human cells of the established line NHIK 3025, originating from a cervical carcinoma in situ (Nordbye, K., and Oftebro, R. Exp. Cell Res., 58: 458, 1969), Oftebro, R., and Nordbye, K., Exp. Cell Res., 58: 459-460, 1969) were cultivated in Medium E2a (Puck, T.T. et al., J. Exp. Med., 106:145-165, 1957) supplemented with 20% human (prepared at the laboratory) and 10% horse serum (Grand Island Biological Co.). The cells are routinely grown as monolayers in tissue culture flasks.
(§2) The cells were kept in continuous exponential growth by frequent reculturing, i.e., every second and third day, and synchronized cell populations with a high degree of synchrony were obtained by repeated selection of mitotic cells (Pettersen, E. O. et al, Cell Tissue Kinet., 10: 511-522, 1977). During the synchronization procedure, the cells were kept in Medium E2a, and the whole experiment took place in a walk-in incubator at 37° C. Under growth conditions as used here, the NHIK 3025 cells have a medium cell-cycle time of ~18 hr, with medium G1, S1 and G2 durations of ~7, ~8, and ~2.5 hr, respectively.
For measurement of cell survival, appropriate numbers of cells were seeded in plastic Petri dishes (.phi.=5 cm). The number of cells seeded into each dish was adjusted such that the number of surviving cells would be approximately 150 per dish. While exponentially growing (asynchronous) cells were trypsinized before seeding, synchronized cells were seeded immediately after selection. After about 2 hr, the cells had attached to the bottom of the dishes, and the treatment was started by replacing the medium with medium containing the appropriate drug concentration. After the desired time of treatment, the drug-containing medium was removed, and fresh medium was added. The dishes were rinsed once with the same medium as was to be added on addition or removal of drug. After 10 to 12 days at 37° C. in a CO2 incubator, the cells were fixed in ethanol and stained with methylene blue before the colonies were counted.
The cytotoxic effect of benzaldehyde and of deuterobenzaldehyde-d1 was tested on asynchronous, exponentially growing NHIK 3025 cells by counting the number of cells able to form colonies after 24 hr treatment in Petri dishes. In Table 1 the results represent 2 different, independent experiments where the numbers give the mean fraction of surviving cells from 10 parallel dishes (± standard error).
Fraction of cells surviving 24 hr treatment with benzaldehyde or deuterobenzaldehyde - d1 in Petri dishes. (The values represent the mean±standard error from 10 different dishes.)

NHIK 3025 cells [3] = assay: Protein synthesis rate ((3H)valine incorporation); type: cell-based, human; settings: 3.2 mM
Source text: as §1, §2
The rate of protein synthesis was calculated as described previously (Ronning, O. W. et al., J. Cell Physiol., 107: 47-57, 1981). Briefly, cellular protein was labeled to saturation during a 2-day preincubation with (^14 C)valine of constant specific radioactivity (0.5 Ci/mol) prior to the experiment. This was achieved by using a high concentration of valine so that the dilution of (^14 C)valine by intracellular valine and by proteolytically generated valine will be negligible (Ronning, O. W., et al. Exp. Cell Res. 123: 63-72, 1979), thus keeping the specific radioactivity at a constant level. The rate of protein synthesis was calculated from the incorporation of (3H)valine of constant specific activity. The incorporation measurements were related to the total of (^14 C) radioactivity in protein at the beginning of the respective measurement periods and expressed as the percentage per hr (Ronning, O. W. et al, J. Cell, Physiol. 107: 47-57, 1981).
[…] The last measurements were done to test the reversibility of the drugs. Drug concentration: 3.2 mM.

[4] = Concentration of BG or BG-d1 in blood samples after iv injection (HPLC); type: in vivo, male Wistar rats; settings: rat, iv
Protocol: Measurement of concentration of 4,6-O-benzylidene-D-glucose (BG) or 4,6-O-deuterobenzylidene-d1 -D-glucose (BG-d1) in blood samples (Table 5).
(§3) Blood samples were taken from male Wistar rats immediately before and at several intervals after intravenous injection of BG or BG-d1. Blood serum was separated by centrifugation. Equal amounts of blood serum and HPLC-grade acetonitrile were mixed and centrifuged at 13,000 rpm (15,000×g) for 5 minutes. Samples were then analyzed for BG or BG-d1 content by High Performance Liquid Chromatography (HPLC). Samples were placed in an autosampler programmed for replicate injections of […] each onto a 4.6×250 mm LC18 HPLC column. The column was eluted with 45% aqueous methanol delivered at 1 ml/min. BG or BG-d1 were detected by using a spectrofluorometer set at excitation and emission wavelengths of 255 and 283 nm, respectively. The slit width used was 10 nm. Quantitation of the amount of BG or BG-d1 in serum samples was performed with an electronic integrator calibrated with standard solutions of BG or BG-d1 in the mobile phase (Pettersen et al., Anticancer Res., 6; 147-152, 1986).
We have compared the metabolism in rats of BG as well as of deuterated BG (BG-d1). In Table 5 the serum concentration of BG or BG-d1 is shown at various time points after a single iv injection of each drug, respectively.

[5] = BG or BG-d1 metabolites in blood samples after iv injection (HPLC peak height); type: in vivo, male Wistar rats; settings: rat, iv, BG versus BG-d1
Protocol: as §3
Measurement of BG or BG-d1 metabolites in blood samples (Table 6)
HPLC of blood samples was performed as indicated above. Relative amounts of BG- or BG-d1 -metabolite were determined by peak height analysis. The peak height from the electronic integrator (in microvolts) of samples taken 30 minutes after iv injection of BG, or 60 minutes after iv injection of BG-d1 were normalized to 1. All other metabolite peaks were compared with these values.
At the same time as BG or BG-d1 metabolism was being determined, a separate metabolite peak appeared in HPLC chromatograms. The increase in BG- and BG-d1 -metabolite and subsequent clearance was measured.

NHIK 3025 cells [6] = assay: Duration of cell cycle-time of synchronized cells; type: cell-based, human; settings: 8 hr treatment
Source text: as §1, §2
(§4) For detection of the drug effects on cell-cycle kinetics, the same methods were used as described previously (Lindmo, T., and Pettersen, E. O., Cell Tissue Kinet., 12: 43-57, 1979), (Pettersen, E. O. et al, Eur. J. Cancer Clin. Oncol., 19: 507-514; 1983), (Ronning, O.W. et al., J. Cell. Physiol., 109: 411-419, 1981). Briefly, the selected mitotic cells were seeded into 8 tissue culture flasks (25 sq cm) 5000 cells per flask. The cells divided within 1 hr and attached as doublets to the bottom of the flasks. […] Analyses of durations of mitosis were performed from these observations (Table 4).
This is shown by the data in Table 3, where we have used synchronized cells treated over an 8 hr period starting 2 hr after mitotic selection, i.e. when the cells were in early Gl.

NHIK 3025 cells [7] = assay: Duration of mitosis of synchronized cells; type: cell-based, human; settings: 3.2 mM during mitosis
Source text: as §1, §2, §4
This effect is probably directly related to the aldehyde group (Pettersen et al. Cancer Res. 45: 2085-2091, 1985). If the deuterated aldehyde group induces different biological effects from the undeuterated one it is therefore good reason to expect this to be expressed as a difference in effect on cells in mitosis. In Table 4 results are shown on prolongation of mitosis of synchronized cells treated with benzaldehyde or deuterobenzaldehyde-d1 during mitosis. The numbers in the table represent the percentage of the cells having a duration of mitosis below 1 hr (which is normal for untreated cells) or above the number of hours indicated on top of each column.

[8] = read-out: Cell survival of cells treated for 24 hr
[9] = read-out: Fraction of cells surviving 24 hr treatment

[2H]C1(c2ccccc2)OC[C@@H]([C@H]2OC(=O)C(O)=C2O)O1 (stereo partly drawn) [mono-sodium salt of deutero 5,6-O-benzylidene-L-ascorbic aci] [mono-sodium salt of deutero 5,6-O-benzylidene-L-ascorbic acid]
pH of the solution ([1]; aqueous solution of mono-sodium salt): 6.6 | Stability (in words) [1]: much more stable | Solubility in water ([1]; water): readily soluble in water

[2H]C1(c2ccccc2)OC[C@@H]([C@H]2OC(=O)C(O)=C2O)O1 (stereo partly drawn) [deutero 5,6-O-benzylidene ascorbic acid, deutero 5,6-O-benzylidene-L-ascorbic acid]
Stability (in words) [1]: instability

[2H]C1(c2ccccc2)OC[C@H]2OC(O)[C@H](O)[C@@H](O)[C@@H]2O1 (stereo partly drawn) [BG-d1, 4,6-O-deuterobenzylidene-d1 -D-glucose]
viability at 6400 µM (NHIK 3025 cells [2]; [8]): 33 ± 7% | viability at 12800 µM (NHIK 3025 cells [2]; [8]): 0.8 ± 0.3% | Protein synthesis (NHIK 3025 cells [3]; asynchronous cells, 3 hr treatment, pulse 0-1 hr, during treatment, Table 8, control 5.7 ± 0.5): 3.0 ± 0.3 %/hr | Protein synthesis (NHIK 3025 cells [3]; asynchronous cells, 3 hr treatment, pulse 2-3 hr, during treatment, Table 8, control 5.7 ± 0.5): 3.4 ± 0.3 %/hr | Protein synthesis (NHIK 3025 cells [3]; synchronized cells, 22 hr treatment, pulse 21-22 hr, during treatment, Table 8, control 5.3 ± 0.2): 4.6 ± 0.2 %/hr | Protein synthesis (NHIK 3025 cells [3]; synchronized cells, 22 hr treatment, pulse 23-24 hr, after treatment, Table 8, control 5.3 ± 0.2): 5.4 ± 0.1 %/hr | Metabolism and clearance from serum (in words) ([4]; compared with BG): slower than that of the undeuterated compound; also recorded: clearly slower metabolism and clearance from serum | concentration at 0 h ([4]; serum, 0 minutes (estimated), read-out: Amount of unmetabolized drug in blood samples): 345 µM | concentration at 2 min ([4]; serum, 2 minutes, read-out: Amount of unmetabolized drug in blood samples): 220 ± 20 µM | concentration at 5 min ([4]; serum, 5 minutes, read-out: Amount of unmetabolized drug in blood samples): 160 ± 20 µM | concentration at 10 min ([4]; serum, 10 minutes, read-out: Amount of unmetabolized drug in blood samples): 140 ± 20 µM | concentration at 0.25 h ([4]; serum, 15 minutes, read-out: Amount of unmetabolized drug in blood samples): 100 ± 20 µM | concentration at 20 min ([4]; serum, 20 minutes, read-out: Amount of unmetabolized drug in blood samples): 97 ± 3 µM | concentration at 0.5 h ([4]; serum, 30 minutes, read-out: Amount of unmetabolized drug in blood samples): 66 ± 15 µM | concentration at 1 h ([4]; serum, 60 minutes, N.F. = Not Found, read-out: Amount of unmetabolized drug in blood samples): 10 ± 5 µM | half-life ([4]; serum, read-out: half-life in vivo): ~15 min | Clearance (or further metabolization) of metabolite (in words) [5]: slower clearance kinetics than that formed from BG

[2H]C(=O)c1ccccc1 [Deuterobenzaldehyde-d1]
viability at 3200 µM (NHIK 3025 cells [2]; [9]): 68 ± 14% | viability at 12800 µM (NHIK 3025 cells [2]; [9]): 0.56 ± 0.2% | Protein synthesis (NHIK 3025 cells [3]; 4 hr treatment, pulse 0-1, during treatment, Table 2, control 6.8 ± 0.9): 3.6 ± 0.3 %/hr | Protein synthesis (NHIK 3025 cells [3]; 4 hr treatment, pulse 4-5, after treatment, Table 2, control 6.8 ± 0.9): 4.7 ± 0.3 %/hr | Protein synthesis (NHIK 3025 cells [3]; 4 hr treatment, pulse 5-6, after treatment, Table 2, control 6.8 ± 0.9): 5.8 ± 0.3 %/hr | Prolongation (NHIK 3025 cells [6]; 2 mM, versus control 1): 15.2% | Duration of the part of the cell cycle starting 2 hr after selection (NHIK 3025 cells [6]; 2 mM, control 1 16.5): 19.0 | Prolongation (NHIK 3025 cells [6]; 2.5 mM, versus control 2): 108.3% | Duration of the part of the cell cycle starting 2 hr after selection (NHIK 3025 cells [6]; 2.5 mM, control 2 16.8): 35.0 | Percentage of cells with duration of mitosis >4 h (NHIK 3025 cells [7]): 70% | Percentage of cells with duration of mitosis >5 h (NHIK 3025 cells [7]): 69% | Percentage of cells with duration of mitosis >6 h (NHIK 3025 cells [7]): 64% | Percentage of cells with duration of mitosis >3 h (NHIK 3025 cells [7]; control 2%): 74% | Percentage of cells with duration of mitosis >2 h (NHIK 3025 cells [7]; control 4%): 81% | Percentage of cells with duration of mitosis >1 h (NHIK 3025 cells [7]; control 17%): 87% | Percentage of cells with duration of mitosis <1 h (NHIK 3025 cells [7]; control 83%): 13%
